Reference: patent US12622915B2, “Methods of treating PDE IV-mediated diseases or conditions” (Vanda Pharmaceuticals Inc., priority 2020, dated 2026)

Experiments:
[1] = target: T1, Phosphodiesterase PDE10A2 (Homo sapiens, UniProt Q9Y233); assay: Phosphodiesterase PDE10A2 enzyme assay; format: biochemical; settings: N=2, Example 3
T1 construct: host or cells: insect Sf9 cells
From the text: Reference standards are run as an integral part of each assay to ensure the validity of the results obtained. Reference Compounds: • Phosphodiesterase PDE10A2 Papaverine • Phosphodiesterase PDE11A4 Dipyridamole • Phosphodiesterase PDE1A MMPX • Phosphodiesterase PDE2A EHNA • Phosphodiesterase PDE3A Cilostamide • Phosphodiesterase PDE4A1A Rolipram • Phosphodiesterase PDE4B1 Rolipram • Phosphodiesterase PDE5A Zaprinast • Phosphodiesterase PDE6 Zaprinast • Phosphodiesterase PDE7A IBMX • Phosphodiesterase PDE7B IBMX • Phosphodiesterase PDE8A1 Dipyridamole • Phosphodiesterase PDE9A2 Zaprinast
Phosphodiesterase PDE4A1A; Phosphodiesterase PDE4B1; Phosphodiesterase PDE10A2; Phosphodiesterase PDE11A4; Phosphodiesterase PDE2A; Phosphodiesterase PDE3A; Phosphodiesterase PDE7A; Phosphodiesterase PDE7B; and Phosphodiesterase PDE8A1: • Source: Human recombinant insect Sf9 cells • Substrate: 0.10 μM FAM-cAMP • Vehicle: 1.00% DMSO • Significance Crit.: ≥50% of max stimulation or inhibition • Incubation Buffer: 10 mM Tris-HCl, pH 7.2, 10 mM MgCl2, 0.05% NaN3, 0.1% phosphate-free BSA • Quantitation Method: Quantitation of Fluorescein-AMP-IMAP • Pre-Incub. Time/Temp: 15 minutes @25° C. • Incubation Time/Temp: 30 minutes @25° C.
IC50 values are determined by a non-linear, least squares regression analysis using MathIQ™ (ID Business Solutions Ltd., UK). […]

[2] = test system: IMQ induced psoriasis
Method: Test Item Details • 1. Dexamethasone Cat. or Batch no.: BCBM4557V (sigma) • Vehicle for dexamethasone (Veh.1): acetone:ethanol (1:1) • Dose: 0.1 mg/ear & 0.25 mg in back skin • Dose volume: 20 μL/ear & 50 μL on back skin • 2. Crisaborole: PZ0037 (Sigma) • Vehicle (Veh.1): acetone:ethanol (1:1) • Dose: 0.1 mg/ear & 0.25 mg in back skin • Dose volume: 20 μL/ear, 50 μL on back skin • 3. Compound of Formula (I) • Vehicle (Veh.1): acetone:ethanol (1:1) • Dose: 0.1 mg/ear & 0.25 mg in back skin • Dose volume: 20 μL/ear, 50 μL on back skin Dexamethasone and Test Item Preparation and Application: • Strength=5 mg/ml
Application=100 μg/20 pit per each ear+250 μg/50 μL on the back G2 to G4 receive Dexamethasone, Crisaborole or test item: Daily topical treatment (D0-D6): 0.1 mg in 20 μl per ear x both the ears+0.25 mg in 50 μl (on the back) 6-8 hrs after IMQ application.
Disease Induction: Application of 5% IMQ cream 40 mg (back) and 5 mg (per ear—Inner surface) daily from day 0-6.
Treatment: 0.5% Dexamethasone solution: 0.25 mg (back) and 0.1 mg (per ear) 8 hrs post IMQ. • Day −2—Depilation on back region • Day 0—Observations (Body weight; ear thickness using digital microcaliper) • Day 2—Observations (Body weight; ear thickness using digital microcaliper) • Day 4—Observations (Body weight; ear thickness using digital microcaliper) • Day 6—Observations (Body weight; ear thickness using digital microcaliper); Blood collection (PK) and Termination {2 hrs after last dose) • Ear collection: PK, Cytokine, MPO, Thickness • Back skin collection, scoring and thickness measurement • Histopathology (optional)
The dorsal posterior area (2 cm×2 cm) of animals is depilated using a hair trimmer. 5% Imiquimod cream: 50 mg/animal (40 mg on the shaved back+5 mg each on the inner part of right and left ear) QD is applied on days 0 to 5 (Groups 1-4).
The body weight is recorded individually for all animals at receipt, day of randomization, prior to treatment, and once in two days thereafter. The animals are observed for mortality at regular intervals.
2 hrs post compound treatment on day 6, all the animals are euthanized, and ear tissues are collected. The right ear is flash frozen in liquid nitrogen and stored at −80° C. until homogenization for MPO and cytokine estimation.
The half of the left ear is used for drug concentration measurement. The other half of the left ear tissue is used for histopathology. The back skin is collected for visual assessment (scoring) and histopathology.
MPO analysis: Snap frozen ear tissue samples are homogenized in 1× assay buffer provided in the kit. The homogenates are centrifuged at 8000 g for 10 minutes in a refrigerated centrifuge. The supernatants are discarded, and the pellet is resuspended in solubilisation buffer (1× assay buffer containing 0.5% HTABr). The samples are homogenized and subjected to three rounds of freeze thaw followed by brief sonication for 10s. The samples are centrifuged at 12,000 g for 10 minutes in a refrigerated centrifuge and the resulting supernatants are analysed for MPO levels based on a fluorometric detection kit. The Kit utilizes a non-fluorescent detection reagent, which is oxidized in the presence of hydrogen peroxide and MPO to produce its fluorescent analogue. (Enzo Life Sciences; ADI-907-029).
Histopathology: At study termination, posterior dorsal skin and ear skin samples are collected. Skin samples are processed using routine histopathological methods and 4-5 μm paraffin sections are prepared. Tissue sections (3 serial sections/animal) are stained with Hematoxylin and eosin (H&E) to evaluate acanthosis, hyper/parakeratosis and inflammatory cellular infiltration in dermis. Severity of lesions are assessed semi quantitatively on a scale of 0-4 by two independent pathologists (0—normal, 1—mild degree, 2—moderate degree, 3—severe degree and 4—extensive or multiple locations) for each parameter in a blinded manner.

[3] = topical 0.5%, ear skin, vs IMQ control
[4] = topical 0.5%, maximum score 16, vs IMQ control

T1 sequence (Q9Y233 267-1055): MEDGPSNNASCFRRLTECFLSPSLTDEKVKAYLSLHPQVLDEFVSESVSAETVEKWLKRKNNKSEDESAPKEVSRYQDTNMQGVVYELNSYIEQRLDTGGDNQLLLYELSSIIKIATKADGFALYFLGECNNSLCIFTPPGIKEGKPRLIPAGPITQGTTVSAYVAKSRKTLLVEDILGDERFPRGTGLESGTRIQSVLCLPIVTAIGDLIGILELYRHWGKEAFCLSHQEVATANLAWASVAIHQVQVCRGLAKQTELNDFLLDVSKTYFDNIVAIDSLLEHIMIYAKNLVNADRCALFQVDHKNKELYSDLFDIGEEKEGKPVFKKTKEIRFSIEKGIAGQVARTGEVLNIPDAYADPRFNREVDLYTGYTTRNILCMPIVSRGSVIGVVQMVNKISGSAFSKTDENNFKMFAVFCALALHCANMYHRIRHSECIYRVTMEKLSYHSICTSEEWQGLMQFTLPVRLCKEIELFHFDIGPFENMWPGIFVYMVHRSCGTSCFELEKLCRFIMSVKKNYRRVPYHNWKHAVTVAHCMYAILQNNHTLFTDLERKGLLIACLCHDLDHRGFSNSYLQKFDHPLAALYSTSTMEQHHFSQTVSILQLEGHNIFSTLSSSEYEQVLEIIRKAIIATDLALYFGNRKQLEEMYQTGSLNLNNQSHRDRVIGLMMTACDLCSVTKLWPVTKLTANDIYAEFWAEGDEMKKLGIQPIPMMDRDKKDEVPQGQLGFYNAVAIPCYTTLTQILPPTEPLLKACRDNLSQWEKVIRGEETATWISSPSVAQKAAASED

For `CNc1nc(Nc2ccccc2)nc(OCC(F)(F)C(F)F)n1` [compound of Formula (I), N^2-methyl-N^4-phenyl-6-(2,2,3,3-tetrafluoropropoxy)-1,3,5-triazine-2,4-diamine], the inhibition at 10 µM [1] was 11%, the “MPO activity in ear tissue homogenates” value ([2]; day 6, topical 0.5%, vs IMQ control) was “do not show significant inhibition” and the Back skin thickness ([2]; day 6 at termination, topical 0.5%, vs IMQ control) was “do not show significant reduction”. The “Body weight / body weight loss” value ([2]; mouse, in vivo) was “significantly less”, the “Cumulative clinical scores (erythema, skin thickness, scales)” value ([2]; topical 0.5%, back skin, maximum score 12, vs IMQ control) was “does not show any significant reduction” and the “Extent of acanthosis, back skin (histopathology)” value ([2]; topical 0.5%, back skin, vs IMQ control) was “reduction”. For the same compound, the Ear thickness ([2]; topical 0.5%, daily, vs IMQ control) was “significant reduction in ear thickness on day 6”, the “Cellular infiltration, ear (histopathology)” value [2, 3] was “significant reduction” and the “Extent of acanthosis, ear (histopathology)” value [2, 3] was “significant reduction”. The “Cumulative HP score of back skin” value [2, 4] was “significant reduction”, the “Overall cumulative HP scores of ear skin” value [2, 4] was “significant reduction” and the “Spleen weight or normalized spleen weight” value ([2]; topical 0.5%, vs IMQ control) was “do not show significant reduction”. The “Cytokine levels in ear tissue homogenates” value ([2]; topical treatment, vs IMQ control) was “significant reduction in few of the proinflammatory cytokines”.
